Read-outs that look alike come from different tables or passages of the source.
Tests used:
[1] = tested on: F. graminearum PH-1; format: cell-based, Fusarium graminearum
[2] = tested on: F. graminearum conidia and hyphae; format: cell-based, Fusarium graminearum

Q: For GRCRGFRRRCFCTTHC [GMA4-C], which “IC100: amount of protein required to inhibit F. graminearum conidial germination completely” value [1] is on record?
A: < 6 µM

Q: With “RTCENLADKYRGPCFSGCDTHCTTKENAVSGRCRDDFRCWCTKRC [MsDef1, reference compound]” as the substance, how does the “IC100: amount of protein required to inhibit F. graminearum conidial germination completely” value [1] read?
A: >6 µM

Q: With TAM-GRCAAAARRCFCTTHC [TMR-GMA4-CM] as the substance, how does the “binding to the surface of fungal hyphae” value [2] read?
A: failed to bind

Q: What about the “entry into fungal cells” value [2] of the same substance?
A: no indication of entry into fungal cells

Q: And the “IC100: amount of protein required to inhibit F. graminearum conidial germination completely” value [1]?
A: >96 µM

Q: And the antifungal activity ([1]; 96 µM)?
A: no antifungal activity

Q: What about the “antifungal activity compared with TMR-GMA4-C” value ([1]; 16 h) of the same substance?
A: significantly lower antifungal activity

Q: With TAM-GRCRGFRRRCFCTTHC [TMR-GMA4-C] as the substance, how does the “entry into fungal cells” value [2] read?
A: entered the cytoplasm

Q: And the “IC100: amount of protein required to inhibit F. graminearum conidial germination completely” value [1]?
A: 48 µM

Q: And the “antifungal activity of labeled compared with untagged/unlabeled protein or peptide” value [1]?
A: considerably less antifungal activity

Q: What about the antifungal activity ([1]; 24 µM) of the same substance?
A: significant growth inhibition

Reference: publication PMC3853197 (PLoS ONE, 2013)
